Test results taken from EP0263202A1, “Inhibition of viral protease activity by peptide halomethyl ketones” (priority 1986, dated 1988).
Residues, ends and D or L forms follow the SMILES beside them.

Legend:
human HeLa-O cells = format: cell-based
Description: (§1) One assay, known as a viral cleavage assay, involves comparison of patterns of protein synthesis (as visualized by incorporation of labeled amino acids) in virus-infected HeLa cells grown in the presence and absence of a selected test compound. A second assay, known as a plaque inhibition assay, involves an assessment of the effects of test compounds upon the infectivity of virus in agar-overlaid cell cultures. Toxic effects of a test compound, if any, will also be observed during the incubation period of the plaque inhibition assay. Both assays are described in greater detail below.
When plaques in control cultures were large enough to be observed, yet still relatively discrete, all cultures were stained with 1% crystal violet. Plaques appeared as clear areas in a deep purple field of uninfected cells.

rhinovirus type 1A = test: plaque inhibition assay; format: cell-based, Human rhinovirus type 1A; details: HeLa cells, concentration at which activity was noted
Description: as §1
In this assay, cultured HeLa cells were grown to confluency in 60 mm plastic petri dishes. Each culture was then infected with approximately 300 plaque-forming units of virus. Human rhinovirus type 1A was used in the test reported below. The virus employed in this experiment was allowed to absorb to the cells for 30 minutes at 34.5°.
The compound tested was dissolved in ethanol at a concentration 100 times greater than the highest concentration to be tested. The resulting solution was then diluted 1:100 into a solution of McCoy's medium containing 5% heat-inactivated fetal calf serum and 0.38% agar. Two-fold dilutions were then made into agar medium. […]

subtilisin BPNʹ = details: ranking among a series of peptide chloromethyl ketones; cited from earlier work

Row | Compound | cytotoxicity first detected at a concentration (human HeLa-O cells) | Antiviral activity, as scored by 90% plaque reduction (rhinovirus type 1A) [µg/mL] | inhibition of subtilisin BPNʹ (subtilisin BPNʹ)
1 | CC(C)C[C@H](NC(=O)[C@H](CC(C)C)NC(=O)CNC(=O)[C@H](Cc1ccccc1)NC(=O)OCc1ccccc1)C(=O)CCl [Z-Phe-Gly-Leu-LeuCH₂Cl, N-carbobenzoxy-L-phenylalanyl-L-glycyl-L-leucyl-L-leucine chloromethyl ketone] (HELM PEPTIDE1{[O=C(OCc1ccccc1)[*:2]].F.G.L.L.[ClC[*:1]]}$$$$V2.0) | about 15 µg/mL | 1 | –
2 | acetyl-L-phenyl-alanyl-L-glycyl-L-alanyl-L-leucyl chloromethyl ketone (FGAL; HELM PEPTIDE1{[ac].F.G.A.L.[ClC[*:1]]}$$$$V2.0; SMILES CC(=O)N[C@@H](Cc1ccccc1)C(=O)NCC(=O)N[C@@H](C)C(=O)N[C@@H](CC(C)C)C(=O)CCl) [Ac-Phe-Gly-Ala-LeuCH₂Cl] | – | – | fastest inhibitor
